According to patent US10758534B2 (Vertex Pharmaceuticals Incorporated, priority 2014, dated 2020):
Like-named read-outs stand apart in the source and are kept apart here.

Molecular target: T1, F508del (Homo sapiens, UniProt P13569, DEL508-508)
T1 construct: expressed in transfected cells
Experiment: Protocol 2: FRET membrane potential optical assay (VIPR), identification of correction compounds
Format: cell-based
Method in brief: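 Correction of the F508del trafficking defect is scored as forskolin (10 μM)/genistein (20 μM)-stimulated Cl^− efflux in NIH3T3 mouse fibroblasts after a 16 hr, 37° C. compound exposure. Depolarization was followed optically using voltage-sensing FRET dyes.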

[1] = Table 3, compounds of Table 1 as modulators of CFTR activity, protocol not stated
[2] = F508del CFTR modulator activity, compounds of Table 1, read-out: EC30

T1 sequence (P13569 with tags, fused parts or gaps DEL508-508): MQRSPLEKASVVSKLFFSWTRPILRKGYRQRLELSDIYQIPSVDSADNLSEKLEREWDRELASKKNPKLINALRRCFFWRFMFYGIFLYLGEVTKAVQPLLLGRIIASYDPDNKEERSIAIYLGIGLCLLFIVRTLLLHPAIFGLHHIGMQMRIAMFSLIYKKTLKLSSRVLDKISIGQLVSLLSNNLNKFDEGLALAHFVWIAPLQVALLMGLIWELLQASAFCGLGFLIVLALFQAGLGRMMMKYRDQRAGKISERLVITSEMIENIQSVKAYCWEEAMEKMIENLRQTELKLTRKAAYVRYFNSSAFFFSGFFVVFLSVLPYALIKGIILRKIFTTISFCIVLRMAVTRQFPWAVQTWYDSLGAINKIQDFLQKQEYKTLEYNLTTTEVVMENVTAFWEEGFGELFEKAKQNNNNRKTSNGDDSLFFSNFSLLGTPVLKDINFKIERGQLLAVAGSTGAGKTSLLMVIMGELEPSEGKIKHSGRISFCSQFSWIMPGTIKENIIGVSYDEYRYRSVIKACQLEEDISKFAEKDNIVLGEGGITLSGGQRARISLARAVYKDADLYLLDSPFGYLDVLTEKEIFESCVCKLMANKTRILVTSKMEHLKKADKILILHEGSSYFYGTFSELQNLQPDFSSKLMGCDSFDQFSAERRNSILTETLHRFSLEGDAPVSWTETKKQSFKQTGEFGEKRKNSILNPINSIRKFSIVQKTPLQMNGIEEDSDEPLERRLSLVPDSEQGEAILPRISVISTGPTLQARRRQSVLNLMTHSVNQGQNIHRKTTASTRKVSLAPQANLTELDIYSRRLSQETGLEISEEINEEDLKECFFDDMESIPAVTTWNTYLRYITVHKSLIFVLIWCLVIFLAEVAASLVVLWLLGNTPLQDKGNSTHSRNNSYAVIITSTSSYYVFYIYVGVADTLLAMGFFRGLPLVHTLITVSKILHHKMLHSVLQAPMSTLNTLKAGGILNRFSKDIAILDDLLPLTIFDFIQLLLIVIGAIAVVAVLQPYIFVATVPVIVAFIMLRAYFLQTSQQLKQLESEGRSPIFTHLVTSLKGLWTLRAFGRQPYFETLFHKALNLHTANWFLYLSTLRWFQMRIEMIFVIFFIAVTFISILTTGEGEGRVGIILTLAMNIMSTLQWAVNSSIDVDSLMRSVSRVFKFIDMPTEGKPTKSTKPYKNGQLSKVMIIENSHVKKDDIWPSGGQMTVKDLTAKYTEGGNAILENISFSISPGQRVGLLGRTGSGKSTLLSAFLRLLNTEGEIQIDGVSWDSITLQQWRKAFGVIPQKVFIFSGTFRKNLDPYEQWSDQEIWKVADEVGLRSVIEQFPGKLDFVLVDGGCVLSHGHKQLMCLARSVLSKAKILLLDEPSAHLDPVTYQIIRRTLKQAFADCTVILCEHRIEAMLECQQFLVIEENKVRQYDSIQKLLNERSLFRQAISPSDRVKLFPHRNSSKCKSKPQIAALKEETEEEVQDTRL

| EC30 [1] | EC30 [2] | Structure (SMILES) |
| --- | --- | --- |
| +++ (“+++” means <3 uM) |  | COc1c(C)cccc1S(=O)(=O)NC(=O)c1cc(C(C)(C)C)nn1Cc1c(C)cccc1C [Compound 59, 5-tert-butyl-2-[(2,6-dimethylphenyl)methyl]-N-(2-methoxy-3-methyl-phenyl)sulfonyl-pyrazole-3-carboxamide] |
| +++ (“+++” means <3 uM) |  | Cc1cccc(C)c1Cn1nc(C(C)(C)C)cc1C(=O)NS(=O)(=O)c1ccccc1F [Compound 57, 5-tert-butyl-2-[(2,6-dimethylphenyl)methyl]-N-(2-fluorophenyl)sulfonyl-pyrazole-3-carboxamide] |
| +++ (“+++” means <3 uM) |  | CCC(CC)Oc1cccc(-c2ccc(C(=O)NS(=O)(=O)c3cccc(N)n3)c(N3CC(C)CC3(C)C)n2)n1 (stereo not shown) [Compound 580, N-[(6-amino-2-pyridyl)sulfonyl]-6-[6-(1-ethylpropoxy)-2-pyridyl]-2-(2,2,4-trimethylpyrrolidin-1-yl)pyridine-3-carboxamide] |
| +++ (“+++” means <3 uM) |  | Cc1cc(C)c(Cn2c(C(=O)NS(=O)(=O)c3cccc(N)c3)cc3c(C)cccc32)c(C)c1 [Compound 144, N-(3-aminophenyl)sulfonyl-4-methyl-1-[(2,4,6-trimethylphenyl)methyl]indole-2-carboxamide] |
| +++ (“+++” means <3 uM) |  | CC(C)(C)c1ccc(C(=O)NS(=O)(=O)c2cccc(N)c2)c(-c2ccc3c(c2)CCC3)n1 [Compound 308, N-(3-aminophenyl)sulfonyl-6-tert-butyl-2-indan-5-yl-pyridine-3-carboxamide] |
| +++ (“+++” means <3 uM) |  | CC1CCN(c2nc3c(cc2C(=O)NS(=O)(=O)c2cccc(N)n2)CCCC3(C)C)CC1 [Compound 750, N-[(6-amino-2-pyridyl)sulfonyl]-8,8-dimethyl-2-(4-methyl-1-piperidyl)-6,7-dihydro-5H-quinoline-3-carboxamide] |
|  | < 3000 nM | Cc1cc(-c2ccc(C(=O)NS(=O)(=O)c3cccc(N)n3)c(N3C[C@@H](C)CC3(C)C)n2)cnc1N(C)CC(C)C [Compound 2279, N-[(6-amino-2-pyridyl)sulfonyl]-6-[6-[isobutyl(methyl)amino]-5-methyl-3-pyridyl]-2-[(4S)-2,2,4-trimethylpyrrolidin-1-yl]pyridine-3-carboxamide] |
| +++ (“+++” means <3 uM) |  | Cc1cc(C)c(Cn2nc(C(C)(C)C)cc2C(=O)NS(=O)(=O)c2cccc3c2ccn3CCO)c(C)c1 [Compound 188, 5-tert-butyl-N-[1-(2-hydroxyethyl)indol-4-yl]sulfonyl-2-[(2,4,6-trimethylphenyl)methyl]pyrazole-3-carboxamide] |
|  | < 3000 nM | CC1CN(c2ncccc2C(=O)NS(=O)(=O)c2cccc(N3CCC[C@@H]3C(=O)OC(C)(C)C)n2)C(C)(C)C1 (stereo partly drawn) [Compound 2536, tert-butyl (2R)-1-[6-[[2-(2,2,4-trimethylpyrrolidin-1-yl)pyridine-3-carbonyl]sulfamoyl]-2-pyridyl]pyrrolidine-2-carboxylate] |
| ++ (“++” means between 3 uM and 10 uM) |  | C[C@@H]1CC[C@H](C)N1c1nc(-c2ccc(Cl)cc2)ccc1C(=O)NS(=O)(=O)c1ccc[nH]c1=O [Compound 760, 6-(4-chlorophenyl)-2-[(2S,5R)-2,5-dimethylpyrrolidin-1-yl]-N-[(2-oxo-1H-pyridin-3-yl)sulfonyl]pyridine-3-carboxamide] |
|  | 3000 to 10000 nM | C[C@@H]1CN(c2nc(-c3ccc(F)c(F)c3)ccc2C(=O)NS(=O)(=O)N2CC[C@H](N)C2)C(C)(C)C1 [Compound 2229, N-[(3S)-3-aminopyrrolidin-1-yl]sulfonyl-6-(3,4-difluorophenyl)-2-[(4S)-2,2,4-trimethylpyrrolidin-1-yl]pyridine-3-carboxamide] |
| +++ (“+++” means <3 uM) |  | Cc1cc(C)c(Oc2nc(C(C)(C)C)ccc2C(=O)NS(=O)(=O)c2ccccc2C#N)c(C)c1 [Compound 78, 6-tert-butyl-N-(2-cyanophenyl)sulfonyl-2-(2,4,6-trimethylphenoxy)pyridine-3-carboxamide] |
|  | < 3000 nM | C[C@@H]1CN(c2nc(-c3ccc(F)cc3O)ccc2C(=O)NS(=O)(=O)c2cccnc2N)C(C)(C)C1 [Compound 2653, N-[(2-amino-3-pyridyl)sulfonyl]-6-(4-fluoro-2-hydroxy-phenyl)-2-[(4S)-2,2,4-trimethylpyrrolidin-1-yl]pyridine-3-carboxamide] |
|  | 3000 to 10000 nM | CC1(C)C(Cc2ccccc2)CCN1c1ncccc1C(=O)NS(=O)(=O)c1cccc(N)n1 (stereo not shown) [Compound 2275, N-[(6-amino-2-pyridyl)sulfonyl]-2-(3-benzyl-2,2-dimethyl-pyrrolidin-1-yl)pyridine-3-carboxamide] |
|  | 3000 to 10000 nM | CCOc1ccc(-c2ccc(C(=O)NS(=O)(=O)N3CC[C@H](N)C3)c(N3C[C@@H](C)CC3(C)C)n2)cc1 [Compound 2525, N-[(3S)-3-aminopyrrolidin-1-yl]sulfonyl-6-(4-ethoxyphenyl)-2-[(4S)-2,2,4-trimethylpyrrolidin-1-yl]pyridine-3-carboxamide] |
|  | 3000 to 10000 nM | COC(=O)N1CCN(c2cccc(S(=O)(=O)NC(=O)c3cccnc3N3CC(C)CC3(C)C)n2)CC1 (stereo not shown) [Compound 2506, methyl 4-[6-[[2-(2,2,4-trimethylpyrrolidin-1-yl)pyridine-3-carbonyl]sulfamoyl]-2-pyridyl]piperazine-1-carboxylate] |
|  | < 3000 nM | COC(=O)c1cccc(Nc2cccc(S(=O)(=O)NC(=O)c3cccnc3N3CC(C)CC3(C)C)n2)c1 (stereo not shown) [Compound 2493, methyl 3-[[6-[[2-(2,2,4-trimethylpyrrolidin-1-yl)pyridine-3-carbonyl]sulfamoyl]-2-pyridyl]amino]benzoate] |
|  | 3000 to 10000 nM | Cc1noc(C)c1-c1ccc(C(=O)NS(=O)(=O)c2cccnc2N)c(N2C[C@@H](C)CC2(C)C)n1 [Compound 2215, N-[(2-amino-3-pyridyl)sulfonyl]-6-(3,5-dimethylisoxazol-4-yl)-2-[(4S)-2,2,4-trimethylpyrrolidin-1-yl]pyridine-3-carboxamide] |
|  | < 3000 nM | Cc1ccc(-c2ccc(C(=O)NS(=O)(=O)c3ccc[nH]c3=O)c(N3C[C@@H](C)CC3(C)C)n2)c(F)c1 [Compound 2000, 6-(2-fluoro-4-methyl-phenyl)-N-[(2-oxo-1H-pyridin-3-yl)sulfonyl]-2-[(4S)-2,2,4-trimethylpyrrolidin-1-yl]pyridine-3-carboxamide] |

| Structure (SMILES) | EC30 [1] | EC30 [2] |
| --- | --- | --- |
| Cc1cc(C)c(Oc2nc(-c3cc(F)cc(OCC(C)C)c3)ccc2C(=O)NS(=O)(=O)c2cccc(C#N)n2)c(C)c1 [Compound 771, N-[(6-cyano-2-pyridyl)sulfonyl]-6-(3-fluoro-5-isobutoxy-phenyl)-2-(2,4,6-trimethylphenoxy)pyridine-3-carboxamide] | +++ (“+++” means <3 uM) |  |
| CC(C)COc1cc(F)cc(-c2ccc(C(=O)NS(=O)(=O)c3ccn[nH]3)c(N3CCC(C(C)C)CC3)n2)c1 [Compound 553, 6-(3-fluoro-5-isobutoxy-phenyl)-2-(4-isopropyl-1-piperidyl)-N-(1H-pyrazol-5-ylsulfonyl)pyridine-3-carboxamide] | +++ (“+++” means <3 uM) |  |
| CC(C)COc1cc(F)cc(-c2nc(N3C[C@@H](C)CC3(C)C)cnc2C(=O)NS(=O)(=O)c2cccc(N)n2)c1 [Compound 2673, N-[(6-amino-2-pyridyl)sulfonyl]-3-(3-fluoro-5-isobutoxy-phenyl)-5-[(4S)-2,2,4-trimethylpyrrolidin-1-yl]pyrazine-2-carboxamide] |  | < 3000 nM |
